Data published in patent publication US7709488B2, “Imidazopyridine-derivatives as inducible no-synthase inhibitors” (Altana Pharma AG, priority 2003, dated 2010).

What was measured:
[1] = target: human inducible NO-synthase (Homo sapiens, UniProt P35228); assay: Measurement of inducible NO-synthase activity ([3H]arginine conversion, crude cytosolic fraction); type: biochemical; conditions: 0.1 μM arginine, 45 to 60 min at 37° C., pH 7.2; for IC50: read-out: Inhibition of iNOS activity [measured as −logIC50 (mol/l)] (converted)
Procedure: Measurement of Inducible NO-Synthase Activity
The assay is performed in 96-well microtiter F-plates (Greiner, Frickenhausen, FRG) in a total volume of 100 μl in the presence of 100 nM calmodulin, 226 μM CaCl2, 477 μM MgCl2, 5 μM flavin-adenine-dinucleotide (FAD), 5 μM flavin mononucleotide (FMN), 0.1 mM NADPH, 7 mM glutathione, 10 μM BH4 and 100 mM HEPES pH 7.2. Arginine concentrations are 0.1 μM for enzyme inhibition experiments. 150000 dpm of [^3H]arginine are added to the assay mixture. Enzyme reaction is started by the addition of 4 μg of a crude cytosolic fraction containing human inducible NO-synthase and the reaction mixture is incubated for 45 to 60 min at 37° C. Enzyme reaction is stopped by adding 10 μl of 2M MES-buffer pH 5.0. 50 μl of the incubation mixture are transferred into a MADP N65 filtration microtiter plate (Millipore, Eschbom, FRG) containing already 50 μl of AG-50W-X8 cation exchange resin (Biorad, München, FRG). The resin in the Na loaded form is pre-equilibrated in water and 70 μl (corresponding to 50 μl dry beads) are pipetted under heavy stirring with a 8 channel pipette into the filtration plate. After pipetting 50 μl of the enzyme reaction mixture onto the filtration plates, the plates are placed on a filtration manifold (Porvair, Shepperton, UK) and the flow through is collected in Pico scintillation plates (Packard, Meriden, Conn.). The resin in the filtration plates is washed with 75 μl of water (1×50 μl and 1×25 μl) which is also collected in the same plate as the sample. The total flow through of 125 μl is mixed with 175 μl of Microscint-40 scintillation cocktail (Packard) and the scintillation plate is sealed with TopSeal P-foil (Packard). Scintillation plates are counted in a scintillation counter.
For the measurement of inducible NO-synthase-inhibiting potencies of compounds increasing concentrations of inhibitors were included into the incubation mixture. IC50-values were calculated from the percent inhibition at given concentrations by nonlinear least square fitting.
The inhibitory values determined for the compounds according to the invention follow from the following table A, in which the compound numbers correspond to the example numbers.

SMILES	melting point [°C]	IC50 [1] [nM]	Inhibition of iNOS activity [measured as −logIC50] [1]
COc1ccnc(CCc2nc3cc(-c4ccc(S(=O)(=O)N5CCN(C(C)=O)CC5)cc4)cnc3[nH]2)c1 [Compound 9, 6-[4-(4-Acetyl-piperazin-1-yl-sulfonyl)-phenyl]-2-[2-(4-methoxy-pyridin-2-yl)ethyl]-3H-imidazo[4,5-b]pyridine]	138 to 140	29.5	
COc1ccnc(CCc2nc3cc(-c4ccc(S(=O)(=O)N5CCN(c6cc(Cl)cc(Cl)c6)CC5)cc4)cnc3[nH]2)c1 [Compound 7, 6-{4-[4-(3,5-Dichlorphenyl)-piperazin-1-yl-sulfonyl]-phenyl}-2-[2-(4-methoxy-pyridin-2-yl)ethyl]-3H-imidazo[4,5-b]pyridine]			6.51
COc1ccnc(CCc2nc3cc(-c4ccc(S(=O)(=O)N(C)c5ccc(Cl)cc5)cc4)cnc3[nH]2)c1 [Compound 28, N-(4-Chlorphenyl)-N-methyl-4-{2-[2-(4-methoxypyridin-2-yl)ethyl]-3H-imidazo-[4,5-b]pyridin-6-yl}benzenesulfonamid]			7.41
COCCN1CCN(S(=O)(=O)c2ccc(-c3cnc4[nH]c(CCc5cc(OC)ccn5)nc4c3)cc2)CC1 [Compound 8, 6-{4-[4-(2-Methoxy-ethyl)-piperazin-1-yl-sulfonyl]-phenyl}-2-[2-(4-methoxy-pyridin-2-yl)ethyl]-3H-imidazo[4,5-b]pyridine]	206 to 208	42.7	
COc1ccnc(CCc2nc3cc(-c4ccc(S(=O)(=O)N5CCN(c6ccccc6)CC5)cc4)cnc3[nH]2)c1 [Compound 3, 2-[2-(4-Methoxypyridin-2-yl)ethyl]-6-[4-(4-phenylpiperazin-1-yl-sulfonyl)-phenyl]-3H-imidazo-[4,5-b]pyridine]	218 to 220	14.5	
COc1ccnc(CCc2nc3cc(-c4ccc(S(=O)(=O)N5CCN(C)CC5)cc4)cnc3[nH]2)c1 [Compound 1]	193 to 195	19.5	
COc1ccnc(CCc2nc3cc(-c4ccc(S(=O)(=O)N5CCOCC5)cc4)cnc3[nH]2)c1 [Compound 10, 2-[2-(4-Methoxypyridin-2-yl)ethyl]-6-[4-(morpholin-4-yl-sulfonyl)-phenyl]-3H-imidazo-[4,5-b]pyridine]	210 to 212	22.9	
COc1ccnc(CCc2nc3cc(-c4ccc(S(=O)(=O)N(C)C)c(OC(F)(F)F)c4)cnc3[nH]2)c1 [Compound 21, 4-{2-[2-(4-Methoxypyridin-2-yl)ethyl]-3H-imidazo[4,5-b]pyridin-6-yl}-N,N-dimethyl-2-trifluormethoxy-benzenesulfonamide]			6.95
COc1ccnc(CCc2nc3cc(-c4ccc(S(=O)(=O)N5CCC(C)CC5)cc4)cnc3[nH]2)c1 [Compound 12, 2-[2(4-Methoxypyridin-2-yl)ethyl]-6-[4-(4-methyl-piperidin-1-yl-sulfonyl)-phenyl]-3H-imidazo-[4,5-b]pyridine]	186 to 188	25.1	
COc1ccnc(CCc2nc3cc(-c4ccc(S(=O)(=O)N5CCN(c6ccc(C#N)cc6)CC5)cc4)cnc3[nH]2)c1 [Compound 4, 2-[2-(4-Methoxypyridin-2-yl)ethyl]-6-{4-[4-(4-cyanophenyl)-piperazin-1-yl-sulfonyl]-phenyl}-3H-imidazo-[4,5-b]pyridine]	217 to 219	30.2	
COc1ccnc(CCc2nc3cc(-c4ccc(S(=O)(=O)N5CCN(c6ccc(C)cc6)CC5)cc4)cnc3[nH]2)c1 [Compound 5, 2-[2-(4-Methoxypyridin-2-yl)ethyl]-6-[4-(4-p-tolyl-piperazin-1-yl-sulfonyl)-phenyl]-3H-imidazo-[4,5-b]pyridine]	150 to 154	26.3	
COc1ccnc(CCc2nc3cc(-c4ccc(S(=O)(=O)N(C)C)c(C(F)(F)F)c4)cnc3[nH]2)c1 [Compound 22, 4-{2-[2-(4-Methoxypyridin-2-yl)ethyl]-3H-imidazo[4,5-b]pyridin-6-yl}-N,N-dimethyl-2-trifluormethyl-benzenesulfonamide]			7

Further lines, with some results ahead:

melting point [°C]	IC50 [1] [nM]	SMILES	Inhibition of iNOS activity [measured as −logIC50] [1]
211 to 212	18.6	COc1ccnc(CCc2nc3cc(-c4ccc(S(=O)(=O)NCc5ccccc5)cc4)cnc3[nH]2)c1 [Compound 19, N-Benzyl-4-{2-[2-(4-methoxypyridin-2-yl)ethyl]-3H-imidazo-[4,5-b]pyridin-6-yl}benzenesulfonamid]	
199 to 200	50.1	COc1ccnc(CCc2nc3cc(-c4ccc(S(=O)(=O)NC5CCCCC5)cc4)cnc3[nH]2)c1 [Compound 20, N-Cyclohexyl-4-{2-[2-(4-methoxypyridin-2-yl)ethyl]-3H-imidazo-[4,5-b]pyridin-6-yl}benzenesulfonamid]	
218 to 220	42.7	COc1ccnc(CCc2nc3cc(-c4ccc(S(=O)(=O)NCCO)cc4)cnc3[nH]2)c1 [Compound 17, N-(2-Hydroxyethyl)-4-{2-[2-(4-methoxypyridin-2-yl)ethyl]-3H-imidazo[4,5-b]pyridin-6-yl}benzenesulfonamid]	
179 to 180	67.6	COc1ccnc(CCc2nc3cc(-c4ccc(S(=O)(=O)N(C)C)cc4C)cnc3[nH]2)c1 [Compound 23, 4-{2-[2-(4-Methoxypyridin-2-yl)ethyl]-3H-imidazo[4,5-b]pyridin-6-yl}-N,N-dimethyl-3-methyl-benzenesulfonamide]	
230 to 232	24	COc1ccnc(CCc2nc3cc(-c4ccc(S(=O)(=O)N5CCNC(=O)CC5)cc4)cnc3[nH]2)c1 [Compound 16, 6-[4-(1,4-Diazepan-5-one-1-yl-sulfonyl)-phenyl]-2-[2-(4-methoxy-pyridin-2-yl)ethyl]-3H-imidazo[4,5-b]pyridine]	
174 to 175	33.1	COc1ccnc(CCc2nc3cc(-c4ccc(S(=O)(=O)N5CCC(C(=O)c6ccccc6)CC5)cc4)cnc3[nH]2)c1 [Compound 13, 6-[4-(4-Benzoyl-piperidin-1-yl-sulfonyl)-phenyl]-2-[2-(4-methoxy-pyridin-2-yl)ethyl]-3H-imidazo[4,5-b]pyridine]	
221 to 222	45.7	COc1ccnc(CCc2nc3cc(-c4ccc(S(=O)(=O)Nc5ccc(N(C)C)cc5)cc4)cnc3[nH]2)c1 [Compound 27, N-(4-Dimethylamino-phenyl)-4-{2-[2-(4-methoxypyridin-2-yl)ethyl]-3H-imidazo-[4,5-b]pyridin-6-yl}benzenesulfonamid]	
127 to 128	91.2	COc1ccnc(CCc2nc3cc(-c4ccc(S(=O)(=O)N(CCO)CCO)cc4)cnc3[nH]2)c1 [Compound 18, N,N-Bis-(2-hydroxyethyl)-4-{2-[2-(4-methoxypyridin-2-yl)ethyl]-3H-imidazo-[4,5-b]pyridin-6-yl}benzenesulfonamid]	
207 to 208	34.7	COc1ccnc(CCc2nc3cc(-c4ccc(S(=O)(=O)N5CCc6cc(OC)c(OC)cc6C5)cc4)cnc3[nH]2)c1 [Compound 15, 6-[4-(6,7-Dimethoxy-1,2,3,4-tetrahydroisoquinolin-2-yl-sulfonyl)-phenyl]-2-[2-(4-methoxy-pyridin-2-yl)ethyl]-3H-imidazo[4,5-b]pyridine]	
